As usually defined, the AC50 is the concentration at which the activity in the assay is half-maximal. The IC50 is the midpoint of a concentration-inhibition curve. As a reminder, the EC50 is the concentration that produces a half-maximal response.

Assay [1] concerns the target T1, Acyl-homoserine lactone acylase PvdQ (Pseudomonas aeruginosa (strain LESB58), UniProt Q9I194).
T1 sequence (Q9I194 whole entry): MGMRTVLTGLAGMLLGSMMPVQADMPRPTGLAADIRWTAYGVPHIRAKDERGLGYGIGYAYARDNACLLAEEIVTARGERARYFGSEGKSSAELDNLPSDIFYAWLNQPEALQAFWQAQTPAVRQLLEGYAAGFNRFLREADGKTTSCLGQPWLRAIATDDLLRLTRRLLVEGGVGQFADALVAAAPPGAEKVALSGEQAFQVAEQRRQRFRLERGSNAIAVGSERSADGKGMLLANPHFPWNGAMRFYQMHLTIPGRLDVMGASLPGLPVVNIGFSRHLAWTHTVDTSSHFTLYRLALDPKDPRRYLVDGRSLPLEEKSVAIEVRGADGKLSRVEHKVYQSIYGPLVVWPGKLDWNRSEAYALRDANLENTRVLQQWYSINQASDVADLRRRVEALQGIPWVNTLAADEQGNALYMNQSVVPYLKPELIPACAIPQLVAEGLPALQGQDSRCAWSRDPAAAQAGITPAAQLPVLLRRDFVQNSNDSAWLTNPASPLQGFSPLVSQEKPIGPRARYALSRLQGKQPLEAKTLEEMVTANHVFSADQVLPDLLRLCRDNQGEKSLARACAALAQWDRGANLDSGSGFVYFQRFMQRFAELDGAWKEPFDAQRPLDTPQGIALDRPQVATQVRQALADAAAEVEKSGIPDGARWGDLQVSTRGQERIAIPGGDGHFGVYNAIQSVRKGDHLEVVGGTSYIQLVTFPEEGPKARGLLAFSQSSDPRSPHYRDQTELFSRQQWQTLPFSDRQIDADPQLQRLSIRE
The experiment in a line: PvdQ acylase enzyme activity blockers – biochemical, fluorescence, plate reader and imaging, cherry-picks, dose response (AID 493231).

Assay [2] in a line: HEK-293T cell viability reduction – luminescence, B-cell screen hits, cytotoxicity control for BCR NF-kB inhibitor project, dose response (AID 489021).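 Further: HEK-293T cells carrying an NF-kB luciferase reporter; cells exposed to compound for about 14 hours before viability readout.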 It counts as functional, cell-based.
The target of a further assay is T2, Hexokinase (Trypanosoma brucei, UniProt Q38C41).
T2 sequence (Q38C41 whole entry): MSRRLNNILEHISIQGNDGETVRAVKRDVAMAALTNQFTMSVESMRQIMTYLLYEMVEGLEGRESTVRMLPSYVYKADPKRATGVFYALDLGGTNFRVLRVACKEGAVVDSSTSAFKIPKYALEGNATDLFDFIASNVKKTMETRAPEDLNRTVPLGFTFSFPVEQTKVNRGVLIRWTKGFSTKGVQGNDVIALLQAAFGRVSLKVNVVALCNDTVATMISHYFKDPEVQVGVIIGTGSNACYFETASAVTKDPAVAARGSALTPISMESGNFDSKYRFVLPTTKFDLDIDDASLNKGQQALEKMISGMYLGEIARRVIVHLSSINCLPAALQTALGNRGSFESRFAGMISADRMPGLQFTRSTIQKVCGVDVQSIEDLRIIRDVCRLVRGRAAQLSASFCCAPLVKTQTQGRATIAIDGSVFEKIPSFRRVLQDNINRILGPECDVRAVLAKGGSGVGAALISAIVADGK
The experiment in a line: Confirmation assay for inhibitors of Trypanosoma brucei hexokinase 1-Analogue-first series. [Related pubchem assays (depositor defined):AID1430, AID1632, AID2516, AID2560, AID2579, AID2600, AID449725, AID492951]. It counts as functional.

The next assay has as its target Cytochrome P450 2C9 (Homo sapiens, UniProt P11712). The conditions noted are these: Potency.
Another assay concerns HeLa. In words: ATP-based viability loss in HeLa cells – cell-based, CellTiter-Glo luminescence, cherry-pick samples, cytotoxicity control for MITF activator project, dose response (AID 540259). The conditions noted are these: Homo sapiens. It counts as functional.
Assay [3] addresses T3, Carboxy-terminal domain RNA polymerase II polypeptide A small phosphatase 1 (Homo sapiens, UniProt Q9GZU7).
T3 sequence (Q9GZU7 whole entry): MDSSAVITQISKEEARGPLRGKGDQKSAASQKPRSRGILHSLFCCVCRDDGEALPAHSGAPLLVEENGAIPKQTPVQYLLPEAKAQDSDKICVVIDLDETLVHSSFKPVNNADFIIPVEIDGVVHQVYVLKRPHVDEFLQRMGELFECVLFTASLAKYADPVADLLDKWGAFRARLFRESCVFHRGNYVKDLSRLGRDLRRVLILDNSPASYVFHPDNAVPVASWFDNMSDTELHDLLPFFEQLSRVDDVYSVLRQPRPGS
The experiment in a line: CTDSP1 inhibitors, concentration-response, biochemical, absorbance readout, ultra-high-throughput screen actives (AID 540297). In kind it is functional.

Assay [4] has as its target Eukaryotic translation initiation factor 4E (Mus musculus, UniProt P63073). In words: blockers of eIF4G binding by eIF4E – biochemical, TR-FRET, dose response (AID 855).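 Further: potency for disrupting eIF4E binding to eIF4GI seen as loss of FRET.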 It counts as functional.
In another assay the target is T4, Protein RecA (Mycobacterium tuberculosis, UniProt P9WHJ3).
T4 sequence (P9WHJ3 whole entry): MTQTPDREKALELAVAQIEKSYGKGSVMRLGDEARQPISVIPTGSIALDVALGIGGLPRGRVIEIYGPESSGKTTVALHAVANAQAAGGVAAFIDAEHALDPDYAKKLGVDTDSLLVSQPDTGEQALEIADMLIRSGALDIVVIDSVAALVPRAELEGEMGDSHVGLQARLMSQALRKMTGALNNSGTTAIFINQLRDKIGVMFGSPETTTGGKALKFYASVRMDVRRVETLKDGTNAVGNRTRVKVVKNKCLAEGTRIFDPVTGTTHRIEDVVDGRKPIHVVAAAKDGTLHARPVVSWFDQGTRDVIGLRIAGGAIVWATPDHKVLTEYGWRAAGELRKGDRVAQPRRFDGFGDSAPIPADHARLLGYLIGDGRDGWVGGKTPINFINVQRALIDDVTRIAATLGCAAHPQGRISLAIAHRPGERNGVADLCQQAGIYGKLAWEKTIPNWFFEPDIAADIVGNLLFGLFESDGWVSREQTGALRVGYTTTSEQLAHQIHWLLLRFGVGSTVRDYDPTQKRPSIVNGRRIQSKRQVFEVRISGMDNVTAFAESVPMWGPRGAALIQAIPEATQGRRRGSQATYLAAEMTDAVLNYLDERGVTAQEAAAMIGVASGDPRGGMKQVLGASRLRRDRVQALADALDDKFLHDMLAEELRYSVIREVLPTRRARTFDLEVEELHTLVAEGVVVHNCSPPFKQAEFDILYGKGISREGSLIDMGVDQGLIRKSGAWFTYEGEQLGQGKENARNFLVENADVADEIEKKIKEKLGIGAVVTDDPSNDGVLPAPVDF
The experiment in a line: Fluorescence Cell-Free Homogeneous Dose Retest to Identify Inhibitors of RecA-Intein Splicing Activity. [Related pubchem assays (depositor defined):AID2097, AID2223, AID489010, AID492950]. In kind it is functional.

The target of assay [5] is T5, Replicative DNA helicase DnaB (Mycobacterium tuberculosis, UniProt P9WMR3).
T5 sequence (P9WMR3 whole entry): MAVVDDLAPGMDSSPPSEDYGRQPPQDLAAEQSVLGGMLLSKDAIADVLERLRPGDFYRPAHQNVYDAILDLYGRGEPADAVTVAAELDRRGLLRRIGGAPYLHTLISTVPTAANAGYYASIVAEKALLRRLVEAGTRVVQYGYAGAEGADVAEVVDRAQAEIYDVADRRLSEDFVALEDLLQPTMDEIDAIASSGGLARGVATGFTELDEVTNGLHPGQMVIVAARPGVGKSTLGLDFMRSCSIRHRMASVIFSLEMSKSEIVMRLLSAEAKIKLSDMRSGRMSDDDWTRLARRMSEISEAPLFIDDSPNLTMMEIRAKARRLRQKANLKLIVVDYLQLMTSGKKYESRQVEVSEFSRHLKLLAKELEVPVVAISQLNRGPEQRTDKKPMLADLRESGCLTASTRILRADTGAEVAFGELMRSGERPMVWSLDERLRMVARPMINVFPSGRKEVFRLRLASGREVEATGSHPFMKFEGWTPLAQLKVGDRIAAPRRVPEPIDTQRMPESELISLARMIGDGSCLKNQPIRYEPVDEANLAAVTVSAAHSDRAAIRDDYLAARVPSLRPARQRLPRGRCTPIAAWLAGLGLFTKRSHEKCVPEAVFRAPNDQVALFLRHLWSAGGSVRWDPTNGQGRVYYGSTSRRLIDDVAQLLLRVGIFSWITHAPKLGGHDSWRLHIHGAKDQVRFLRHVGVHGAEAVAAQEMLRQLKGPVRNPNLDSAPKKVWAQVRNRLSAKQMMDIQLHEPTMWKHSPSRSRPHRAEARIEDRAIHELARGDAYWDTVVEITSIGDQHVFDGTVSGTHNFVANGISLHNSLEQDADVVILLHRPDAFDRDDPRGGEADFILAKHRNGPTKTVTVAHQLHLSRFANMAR
In words: DnaB intein splicing inhibitors, dose response, biochemical, cell-free fluorescence (AID 449749). It counts as functional.

In another assay the target is Ephrin type-A receptor 4 (Mus musculus, UniProt Q03137). In words: EphA4 ligand-binding antagonists – biochemical, colorimetric, mouse EphA4, primary screen (AID 689). In kind it is functional.
The target in assay [6] is Peroxisome proliferator-activated receptor gamma/Nuclear receptor corepressor 2 (Homo sapiens, UniProt P37231+Q9Y618). In kind it is functional.
Sequence of Peroxisome proliferator-activated receptor gamma/Nuclear receptor corepressor 2 (P37231 whole entry): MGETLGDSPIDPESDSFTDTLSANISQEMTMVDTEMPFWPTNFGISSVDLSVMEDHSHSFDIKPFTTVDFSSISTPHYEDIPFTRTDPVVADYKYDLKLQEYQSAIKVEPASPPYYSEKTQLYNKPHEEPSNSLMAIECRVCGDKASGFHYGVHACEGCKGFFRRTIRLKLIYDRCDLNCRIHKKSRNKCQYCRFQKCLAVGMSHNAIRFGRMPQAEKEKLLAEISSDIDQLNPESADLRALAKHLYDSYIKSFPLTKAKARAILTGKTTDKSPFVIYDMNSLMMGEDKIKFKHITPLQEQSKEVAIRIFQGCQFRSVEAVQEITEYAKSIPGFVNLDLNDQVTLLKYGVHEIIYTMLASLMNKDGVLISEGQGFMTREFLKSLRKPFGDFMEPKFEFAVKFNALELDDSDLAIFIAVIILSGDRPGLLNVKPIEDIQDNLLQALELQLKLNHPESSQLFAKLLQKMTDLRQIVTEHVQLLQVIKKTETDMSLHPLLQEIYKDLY
Sequence of Peroxisome proliferator-activated receptor gamma/Nuclear receptor corepressor 2 (Q9Y618 whole entry): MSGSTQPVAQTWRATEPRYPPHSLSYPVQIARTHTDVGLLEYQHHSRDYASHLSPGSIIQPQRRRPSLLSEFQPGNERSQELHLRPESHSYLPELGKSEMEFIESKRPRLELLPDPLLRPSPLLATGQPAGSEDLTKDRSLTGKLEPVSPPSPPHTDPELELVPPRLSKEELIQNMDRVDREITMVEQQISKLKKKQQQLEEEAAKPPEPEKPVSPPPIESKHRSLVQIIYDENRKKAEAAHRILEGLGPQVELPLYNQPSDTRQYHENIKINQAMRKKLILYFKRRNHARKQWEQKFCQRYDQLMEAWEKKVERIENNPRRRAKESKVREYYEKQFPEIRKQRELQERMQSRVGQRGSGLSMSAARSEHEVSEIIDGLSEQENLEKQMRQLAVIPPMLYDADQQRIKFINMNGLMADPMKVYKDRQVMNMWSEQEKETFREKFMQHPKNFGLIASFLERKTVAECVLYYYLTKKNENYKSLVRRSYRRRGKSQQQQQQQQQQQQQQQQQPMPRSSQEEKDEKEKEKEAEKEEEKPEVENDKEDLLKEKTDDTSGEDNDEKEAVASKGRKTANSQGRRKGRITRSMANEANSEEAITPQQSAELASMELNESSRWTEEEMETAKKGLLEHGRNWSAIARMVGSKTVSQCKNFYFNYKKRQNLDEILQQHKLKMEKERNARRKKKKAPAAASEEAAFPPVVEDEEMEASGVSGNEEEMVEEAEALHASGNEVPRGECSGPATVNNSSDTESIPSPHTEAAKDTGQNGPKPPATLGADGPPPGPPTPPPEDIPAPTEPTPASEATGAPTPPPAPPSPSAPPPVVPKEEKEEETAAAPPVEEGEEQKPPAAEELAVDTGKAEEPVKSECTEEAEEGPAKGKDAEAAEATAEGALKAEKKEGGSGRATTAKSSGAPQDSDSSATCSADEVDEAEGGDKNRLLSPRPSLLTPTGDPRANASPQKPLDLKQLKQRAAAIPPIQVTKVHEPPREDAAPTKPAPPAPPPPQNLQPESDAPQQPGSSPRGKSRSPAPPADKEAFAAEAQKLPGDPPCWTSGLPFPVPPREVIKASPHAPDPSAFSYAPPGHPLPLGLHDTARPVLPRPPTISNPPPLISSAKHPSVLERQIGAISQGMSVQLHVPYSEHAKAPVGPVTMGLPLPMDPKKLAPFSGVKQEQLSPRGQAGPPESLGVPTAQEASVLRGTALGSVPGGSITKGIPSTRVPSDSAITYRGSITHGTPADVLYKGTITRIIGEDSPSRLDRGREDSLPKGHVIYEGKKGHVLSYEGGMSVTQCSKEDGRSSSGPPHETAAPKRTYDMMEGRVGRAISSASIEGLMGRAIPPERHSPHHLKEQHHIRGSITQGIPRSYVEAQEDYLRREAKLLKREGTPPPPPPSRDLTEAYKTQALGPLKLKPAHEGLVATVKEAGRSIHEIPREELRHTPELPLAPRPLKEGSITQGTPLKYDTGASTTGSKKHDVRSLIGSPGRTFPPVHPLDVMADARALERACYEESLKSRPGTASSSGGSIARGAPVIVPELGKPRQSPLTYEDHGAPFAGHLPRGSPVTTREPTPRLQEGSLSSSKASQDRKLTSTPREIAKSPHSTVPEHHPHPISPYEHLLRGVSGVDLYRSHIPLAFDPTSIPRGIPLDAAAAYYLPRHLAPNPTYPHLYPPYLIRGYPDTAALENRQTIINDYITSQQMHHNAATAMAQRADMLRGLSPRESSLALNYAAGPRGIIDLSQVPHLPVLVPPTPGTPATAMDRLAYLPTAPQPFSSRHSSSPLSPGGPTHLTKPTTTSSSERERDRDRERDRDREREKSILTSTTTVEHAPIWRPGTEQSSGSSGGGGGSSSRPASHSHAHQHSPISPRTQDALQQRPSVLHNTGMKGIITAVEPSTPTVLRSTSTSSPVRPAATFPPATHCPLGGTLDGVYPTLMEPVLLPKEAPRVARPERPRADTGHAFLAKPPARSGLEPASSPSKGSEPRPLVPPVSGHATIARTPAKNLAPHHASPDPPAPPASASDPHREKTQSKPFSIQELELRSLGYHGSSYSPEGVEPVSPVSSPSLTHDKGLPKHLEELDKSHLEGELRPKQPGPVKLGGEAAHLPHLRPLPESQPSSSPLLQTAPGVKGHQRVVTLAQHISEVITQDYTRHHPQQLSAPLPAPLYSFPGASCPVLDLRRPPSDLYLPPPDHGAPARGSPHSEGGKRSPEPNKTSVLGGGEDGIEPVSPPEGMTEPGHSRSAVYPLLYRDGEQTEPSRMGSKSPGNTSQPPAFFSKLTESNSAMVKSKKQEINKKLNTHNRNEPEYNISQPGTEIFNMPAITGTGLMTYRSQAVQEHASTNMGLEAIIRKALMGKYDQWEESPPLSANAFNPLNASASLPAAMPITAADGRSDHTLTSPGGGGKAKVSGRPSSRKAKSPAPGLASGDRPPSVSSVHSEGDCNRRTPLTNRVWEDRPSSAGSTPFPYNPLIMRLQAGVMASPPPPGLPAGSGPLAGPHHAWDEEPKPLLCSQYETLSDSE
Assay [7] has as its target Photoreceptor-specific nuclear receptor (Homo sapiens, UniProt Q9Y5X4). In kind it is functional.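 Further: potency for compounds that break the NR2E3 corepressor complex and count as activators.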
Assay [8] in a line: Counterscreen for antagonists of the orexin 1 receptor (OX1R; HCRTR1): Fluorescence-based cell-based high throughput dose response assay to identify antagonists of the parental CHO cell line. [Related pubchem assays (depositor defined):AID434989, AID435008, AID463079, AID485270, AID492963, AID492964, AID492965, AID493232, AID504699, AID504701]. In kind it is functional. A general note: Counterscreens check selectivity or assay interference.

The target of assay [9] is T6, Orexin/Hypocretin receptor type 1 (Homo sapiens, UniProt O43613).
T6 sequence (O43613 whole entry): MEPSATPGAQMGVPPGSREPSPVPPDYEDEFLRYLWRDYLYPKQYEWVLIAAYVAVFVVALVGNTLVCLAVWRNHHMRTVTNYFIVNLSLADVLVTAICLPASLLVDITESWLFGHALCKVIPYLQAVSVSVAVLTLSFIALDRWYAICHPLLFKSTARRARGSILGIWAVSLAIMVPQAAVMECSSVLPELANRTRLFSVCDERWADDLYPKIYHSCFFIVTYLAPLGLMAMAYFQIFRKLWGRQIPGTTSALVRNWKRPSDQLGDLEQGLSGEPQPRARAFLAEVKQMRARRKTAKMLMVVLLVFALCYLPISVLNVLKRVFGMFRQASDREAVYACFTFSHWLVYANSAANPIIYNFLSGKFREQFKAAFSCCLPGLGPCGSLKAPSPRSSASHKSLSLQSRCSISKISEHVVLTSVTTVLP
The experiment in a line: Fluorescence-based cell-based high throughput dose response assay for antagonists of the orexin 1 receptor (OX1R; HCRTR1). [Related pubchem assays (depositor defined):AID434989, AID435008, AID463079, AID485270, AID492963, AID492964, AID492965, AID493232, AID504717, AID504718]. It counts as functional.

Another assay deals with CHO-K1. In words: Counterscreen for antagonists of the orexin 1 receptor (OX1R; HCRTR1): Homogeneous time resolved fluorescence (HTRF)-based cell-based dose response assay to identify antagonists of the parental CHO-K1 cell line. [Related pubchem assays (depositor defined):AID434989, AID435008, AID463079, AID485270, AID492963, AID492964, AID492965, AID493232, AID504699, AID504701]. It counts as functional. The settings on record: Cricetulus griseus.

Assay [10] concerns the target T6, Orexin/Hypocretin receptor type 1. The experiment in a line: Homogeneous Time Resolved Fluorescence (HTRF)-based cell-based high throughput dose response assay for antagonists of the orexin 1 receptor (OX1R; HCRTR1). [Related pubchem assays (depositor defined):AID434989, AID435008, AID463079, AID485270, AID492963, AID492964, AID492965, AID493232, AID504717, AID504718]. It counts as functional.

The structures appear in SMILES notation. Calls of active or inactive are those of the source. Bounds are passed on as bounds.

Sequence of Eukaryotic translation initiation factor 4E (P63073 whole entry): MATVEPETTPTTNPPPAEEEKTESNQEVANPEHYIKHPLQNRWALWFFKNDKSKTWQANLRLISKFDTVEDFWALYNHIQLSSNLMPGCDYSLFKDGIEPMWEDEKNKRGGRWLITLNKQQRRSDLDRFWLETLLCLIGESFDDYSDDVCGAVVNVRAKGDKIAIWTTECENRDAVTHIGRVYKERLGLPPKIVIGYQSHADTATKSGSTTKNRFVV
Sequence of Photoreceptor-specific nuclear receptor (Q9Y5X4 whole entry): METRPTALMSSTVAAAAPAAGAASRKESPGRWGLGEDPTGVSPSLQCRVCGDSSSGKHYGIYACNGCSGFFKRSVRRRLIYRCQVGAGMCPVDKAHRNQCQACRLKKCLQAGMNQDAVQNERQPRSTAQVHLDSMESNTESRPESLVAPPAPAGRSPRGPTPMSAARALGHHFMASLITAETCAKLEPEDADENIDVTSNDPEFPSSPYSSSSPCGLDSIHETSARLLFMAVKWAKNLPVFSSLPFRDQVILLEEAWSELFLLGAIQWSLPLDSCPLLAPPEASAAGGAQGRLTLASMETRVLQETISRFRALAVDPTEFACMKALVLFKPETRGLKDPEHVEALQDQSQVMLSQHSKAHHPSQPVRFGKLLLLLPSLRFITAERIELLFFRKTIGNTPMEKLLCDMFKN
Sequence of Cytochrome P450 2C9 (P11712 whole entry): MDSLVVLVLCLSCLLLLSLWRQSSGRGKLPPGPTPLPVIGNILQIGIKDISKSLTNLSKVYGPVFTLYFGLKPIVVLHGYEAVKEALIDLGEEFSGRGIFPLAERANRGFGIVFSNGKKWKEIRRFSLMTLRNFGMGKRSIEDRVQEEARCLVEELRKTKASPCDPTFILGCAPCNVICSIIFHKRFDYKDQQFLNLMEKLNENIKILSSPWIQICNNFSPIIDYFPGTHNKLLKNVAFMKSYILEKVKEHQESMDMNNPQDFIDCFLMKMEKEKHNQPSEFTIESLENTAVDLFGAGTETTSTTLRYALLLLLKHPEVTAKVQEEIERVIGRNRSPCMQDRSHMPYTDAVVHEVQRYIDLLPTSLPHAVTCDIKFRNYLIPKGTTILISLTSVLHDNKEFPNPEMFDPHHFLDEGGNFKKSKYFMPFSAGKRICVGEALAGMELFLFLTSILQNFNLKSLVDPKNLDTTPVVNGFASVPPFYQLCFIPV

With `CCOC(=O)CCCn1ncn2c(cc3occc32)c1=O`, the AC50 in assay [1] was 12 µM (active).
`COc1ccccc1/C=C1\SC(=S)N(CCC(=O)Nc2cccc(O)c2)C1=O`: the IC50 in assay [2] is 60.6 µM (inactive).
For `CC(C)Cc1ccc(C(=O)Nc2cc(Cl)ccc2C(=O)O)cc1`, the concentration for half-maximal inhibition (IC50) at Hexokinase was 7.25 µM (active).
As for `COc1cc(O)c2c(=O)cc(-c3ccccc3)oc2c1` [TECHTOCHRYSIN], the AC50 on Cytochrome P450 2C9 is 2.51 µM (inconclusive); in the assay on HeLa, 46.2 µM (active).
As for `Cc1ccc(-n2nc(-c3ccco3)cc2C(=O)O)c(C)c1`, the IC50 is 4.94 µM (active) in assay [3] and 50 µM (inactive) in [4].
Turning to `COc1cc(-c2[nH]nc3c2C(c2ccco2)C(C#N)=C(N)O3)cc(OC)c1OC` (stereo not given), the half-maximal effective concentration (EC50) on Protein RecA is 0.531 µM (active). The concentration at half-maximal activity (AC50) in assay [5] was 6.62 µM (active). In [2], the IC50 is > 80 µM (inactive).
For the compound `O=C(Nc1cc(Cl)ccc1C(=O)O)c1ccoc1`, on Hexokinase, the IC50 was > 25 µM (inactive).
For `COC(=O)Sc1nnc(-c2ccc(Br)cc2)o1`, the IC50 on Ephrin type-A receptor 4 is 13 µM (active); in [4], 30.7 µM (active); in assay [6], 3.53 µM (active); in assay [7], > 39.8 µM (not active).
Take `O=C1NCC(c2ccccc2)C1C(=O)N/N=C\c1ccc(-c2cccc(Cl)c2Cl)o1` (stereo not given): the IC50 in assay [8] was 24.7 µM (inactive); in assay [9], 2.32 µM (active); in the assay on CHO-K1, > 66.2 µM (inactive); in assay [10], 0.648 µM (active).
With `CC(C)(C)c1ccc(C(=O)Nc2c(C(=O)O)ccc(Cl)c2Cl)cc1`, the IC50 on Hexokinase is > 25 µM (inactive).
